Measured values as given in patent US9388179B2, “N-substituted indazole sulfonamide compounds with selective activity in voltage-gated sodium channels” (Merck Sharp & Dohme Corp., priority 2012, dated 2016).

Experiments:
Type in all cases: cell-based
Nav 1.7 = target: T1, Nav 1.7 (Homo sapiens, UniProt Q15858); assay: Comparative examples, Nav 1.7 activity (Patch Express or Ion Works, technique not given); settings: Table IX, read-out: Activity: Nav 1.7 potency
T1 construct: expressed in transfected cells; host or cells: HEK 293
T1 sequence (Q15858 whole entry): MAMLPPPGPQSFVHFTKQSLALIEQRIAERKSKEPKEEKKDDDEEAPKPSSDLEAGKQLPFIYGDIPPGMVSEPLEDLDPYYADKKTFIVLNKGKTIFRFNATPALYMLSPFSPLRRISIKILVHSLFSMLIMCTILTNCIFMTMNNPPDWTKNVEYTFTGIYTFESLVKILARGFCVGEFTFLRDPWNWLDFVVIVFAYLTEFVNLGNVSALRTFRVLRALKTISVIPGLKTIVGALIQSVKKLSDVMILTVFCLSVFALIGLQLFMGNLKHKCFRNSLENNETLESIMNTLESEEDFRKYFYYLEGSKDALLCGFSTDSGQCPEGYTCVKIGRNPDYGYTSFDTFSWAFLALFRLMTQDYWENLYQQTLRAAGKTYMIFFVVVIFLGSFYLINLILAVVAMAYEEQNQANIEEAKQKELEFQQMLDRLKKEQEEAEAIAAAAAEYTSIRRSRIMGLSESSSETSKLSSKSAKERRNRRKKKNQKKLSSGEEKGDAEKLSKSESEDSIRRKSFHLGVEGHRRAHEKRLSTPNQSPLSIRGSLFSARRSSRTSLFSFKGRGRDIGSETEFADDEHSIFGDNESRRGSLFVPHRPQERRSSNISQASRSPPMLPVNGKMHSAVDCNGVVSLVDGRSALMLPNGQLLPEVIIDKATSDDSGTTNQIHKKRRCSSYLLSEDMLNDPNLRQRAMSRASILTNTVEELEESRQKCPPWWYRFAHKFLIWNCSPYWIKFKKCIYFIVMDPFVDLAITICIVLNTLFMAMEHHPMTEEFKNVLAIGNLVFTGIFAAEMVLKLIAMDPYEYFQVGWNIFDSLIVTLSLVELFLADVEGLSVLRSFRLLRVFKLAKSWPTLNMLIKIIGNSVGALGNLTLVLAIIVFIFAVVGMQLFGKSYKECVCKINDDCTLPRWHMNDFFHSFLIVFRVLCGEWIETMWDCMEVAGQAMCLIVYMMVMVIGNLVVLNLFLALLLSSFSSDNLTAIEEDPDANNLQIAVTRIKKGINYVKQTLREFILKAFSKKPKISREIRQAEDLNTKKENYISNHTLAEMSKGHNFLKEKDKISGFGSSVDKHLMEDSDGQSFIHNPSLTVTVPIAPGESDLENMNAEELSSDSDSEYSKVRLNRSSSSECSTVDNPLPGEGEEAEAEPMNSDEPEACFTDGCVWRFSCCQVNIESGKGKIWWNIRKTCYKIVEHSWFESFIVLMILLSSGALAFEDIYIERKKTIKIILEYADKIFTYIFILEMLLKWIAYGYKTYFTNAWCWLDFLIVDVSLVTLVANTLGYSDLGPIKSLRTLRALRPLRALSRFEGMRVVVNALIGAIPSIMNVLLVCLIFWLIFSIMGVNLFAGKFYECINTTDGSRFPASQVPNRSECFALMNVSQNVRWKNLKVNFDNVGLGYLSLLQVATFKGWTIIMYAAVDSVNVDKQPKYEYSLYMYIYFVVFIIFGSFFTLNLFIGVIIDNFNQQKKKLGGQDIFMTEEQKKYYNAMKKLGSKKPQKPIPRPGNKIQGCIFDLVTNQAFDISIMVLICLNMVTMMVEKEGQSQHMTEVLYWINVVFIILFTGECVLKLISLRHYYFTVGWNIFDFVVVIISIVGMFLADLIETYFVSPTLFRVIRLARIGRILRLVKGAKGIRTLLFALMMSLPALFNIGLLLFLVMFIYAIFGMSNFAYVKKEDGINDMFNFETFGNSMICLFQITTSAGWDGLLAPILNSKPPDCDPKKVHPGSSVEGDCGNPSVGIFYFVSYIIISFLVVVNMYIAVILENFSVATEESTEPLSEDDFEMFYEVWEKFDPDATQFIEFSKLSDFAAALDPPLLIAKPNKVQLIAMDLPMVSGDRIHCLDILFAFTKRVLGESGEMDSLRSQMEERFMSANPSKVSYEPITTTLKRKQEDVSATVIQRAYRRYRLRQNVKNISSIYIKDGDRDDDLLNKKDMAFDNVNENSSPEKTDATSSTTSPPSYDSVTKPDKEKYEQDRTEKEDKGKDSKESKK
Method: (§1) Potency of the example compounds was assayed using Patch Express or Ion Works techniques, as reported herein. The results are reported below following each example number as follows: Ex-(no.) Nav 1.7 potency (nM) [ratio 1.5:1.7=Nav 1.5 potency (nM)/Nav1.7 potency (nM)].

Nav 1.5 = target: T2, Nav 1.5 (Homo sapiens, UniProt Q14524); assay: Comparative examples, Nav 1.5 activity (Patch Express or Ion Works, technique not given); settings: Table IX
T2 construct: expressed in transfected cells; host or cells: HEK 293
Method: as §1

[1] = target: T3, human Nav1.5 channels stably expressed in HEK 293 cells (Homo sapiens, UniProt Q14524); assay: IonWorks Quattro automated patch-clamp, inactivated state block; settings: IonWorks technique
T3 construct: expressed in transfected cells; host or cells: HEK 293
T3 sequence (Q14524 whole entry): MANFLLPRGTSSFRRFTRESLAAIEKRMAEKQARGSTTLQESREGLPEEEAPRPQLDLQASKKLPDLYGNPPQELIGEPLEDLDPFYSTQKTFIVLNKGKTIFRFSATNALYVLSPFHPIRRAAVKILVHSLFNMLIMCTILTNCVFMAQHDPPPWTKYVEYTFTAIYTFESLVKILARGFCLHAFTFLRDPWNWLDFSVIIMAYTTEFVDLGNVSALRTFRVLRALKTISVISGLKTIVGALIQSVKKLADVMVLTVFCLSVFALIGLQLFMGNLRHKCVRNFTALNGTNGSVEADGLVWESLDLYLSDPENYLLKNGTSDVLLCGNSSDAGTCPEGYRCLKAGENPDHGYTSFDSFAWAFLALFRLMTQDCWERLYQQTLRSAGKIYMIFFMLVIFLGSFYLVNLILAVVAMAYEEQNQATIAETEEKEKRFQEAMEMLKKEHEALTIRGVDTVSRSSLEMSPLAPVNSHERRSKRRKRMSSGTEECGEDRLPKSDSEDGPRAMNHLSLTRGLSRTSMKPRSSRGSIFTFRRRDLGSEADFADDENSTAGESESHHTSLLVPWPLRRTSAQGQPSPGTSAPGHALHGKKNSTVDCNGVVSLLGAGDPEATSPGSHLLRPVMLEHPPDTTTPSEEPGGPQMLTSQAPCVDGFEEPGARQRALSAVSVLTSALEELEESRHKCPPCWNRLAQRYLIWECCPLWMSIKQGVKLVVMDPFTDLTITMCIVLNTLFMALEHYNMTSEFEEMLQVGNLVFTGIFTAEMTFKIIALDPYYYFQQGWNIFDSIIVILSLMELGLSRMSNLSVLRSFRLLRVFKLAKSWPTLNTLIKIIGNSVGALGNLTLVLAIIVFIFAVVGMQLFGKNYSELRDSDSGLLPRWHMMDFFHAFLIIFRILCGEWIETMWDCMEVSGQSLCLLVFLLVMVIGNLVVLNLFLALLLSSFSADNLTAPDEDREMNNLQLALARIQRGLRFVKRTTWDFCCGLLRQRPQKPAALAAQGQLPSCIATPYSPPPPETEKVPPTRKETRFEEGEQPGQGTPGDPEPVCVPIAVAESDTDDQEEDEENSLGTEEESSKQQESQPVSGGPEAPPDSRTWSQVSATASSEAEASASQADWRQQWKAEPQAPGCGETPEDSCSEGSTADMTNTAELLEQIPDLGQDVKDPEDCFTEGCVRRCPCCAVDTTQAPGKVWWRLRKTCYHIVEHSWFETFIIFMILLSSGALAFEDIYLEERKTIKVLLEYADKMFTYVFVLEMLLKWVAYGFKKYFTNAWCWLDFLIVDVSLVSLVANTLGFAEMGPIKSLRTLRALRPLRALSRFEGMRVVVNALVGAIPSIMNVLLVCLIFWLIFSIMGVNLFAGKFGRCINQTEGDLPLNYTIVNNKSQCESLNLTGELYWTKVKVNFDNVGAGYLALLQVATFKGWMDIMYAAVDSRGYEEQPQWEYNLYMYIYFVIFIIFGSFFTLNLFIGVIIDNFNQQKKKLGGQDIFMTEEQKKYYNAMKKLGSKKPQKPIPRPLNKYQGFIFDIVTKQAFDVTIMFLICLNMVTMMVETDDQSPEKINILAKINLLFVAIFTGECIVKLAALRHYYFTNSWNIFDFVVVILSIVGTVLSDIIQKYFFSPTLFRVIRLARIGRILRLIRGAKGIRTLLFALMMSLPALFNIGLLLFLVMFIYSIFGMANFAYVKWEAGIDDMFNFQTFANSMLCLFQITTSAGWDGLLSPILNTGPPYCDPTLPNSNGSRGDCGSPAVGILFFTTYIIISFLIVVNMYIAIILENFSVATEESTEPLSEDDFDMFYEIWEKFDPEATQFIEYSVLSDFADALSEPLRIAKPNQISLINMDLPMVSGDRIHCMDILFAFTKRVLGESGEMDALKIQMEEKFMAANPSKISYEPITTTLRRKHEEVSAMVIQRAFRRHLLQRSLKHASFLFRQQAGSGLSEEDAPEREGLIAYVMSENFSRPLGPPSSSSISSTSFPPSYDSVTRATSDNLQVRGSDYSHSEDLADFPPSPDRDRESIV
Method: (§2) For all electrophysiology experiments, offline analysis was used to correct for current rundown and to determine percent inhibition as a function of drug concentration. IC50 values were determined by fitting to the Hill equation.
(§3) Cell Based Assays for Nav 1.7 and Nav 1.5 Activity
(§4) Compounds were tested on human Nav1.7 and Nav1.5 channels stably expressed in HEK 293 cells. […] Cells were sealed on a planar substrate using the Population Patch […] (PPC) technology. Electrical access was obtained using both nystatin and amphotericin. A double-pulse protocol was used for the determination of IC50 values for inactivated state block. Nav1.7 and Nav1.5 expressing cells were voltage clamped at −100 mV and −110 mV, respectively. A depolarizing prepulse to −10 mV (Nav1.7) or −30 mV (Nav1.5) for 1000 ms followed by a 10 ms repolarization to −100 mV (Nav1.7) or −110 mV (Nav1.5) was given to generate fractional channel inactivation of 50%, followed by a 10 ms test pulse to −10 mV (Nav1.7) or −30 mV (Nav1.5) to measure peak current in control conditions and after compound addition. The following recording solutions were used (mM). External: 150 NaCl, 2 CaCl2, 5 KCl, 1 MgCl2, 10 HEPES, 12 Dextrose; internal: 120 CsF, 30 CsCl, 10 EGTA, 5 HEPES, 5 NaF, 2 MgCl2.

[2] = target: T4, human Nav1.7 channels stably expressed in HEK 293 cells (Homo sapiens, UniProt Q15858); assay: as above; settings: IonWorks technique; read-out: Nav 1.7 potency
T4 construct: expressed in transfected cells; host or cells: HEK 293
T4 sequence (Q15858 whole entry): as the sequence (Q15858 whole entry) above
Method: as §2, §3, §4

[3] = target: T3, human Nav1.5 channels stably expressed in HEK 293 cells; assay: PatchXpress 7000 automated patch-clamp, inactivated state block; settings: PatchXpress technique
Method: as §2
(§5) Sodium Current Measurements on the PatchXpress 7000®:
(§6) To measure inactivated state block of sodium channels, test compounds were characterized in an automated PatchXpress® assay (Molecular Devices) using a double-pulse protocol on human Nav1.7 and Nav1.5 channels stably expressed in HEK 293 cells. Cells were held at a potential 20 mV negative to V0.5 inact. An 8000 ms pre-pulse 7 mV positive to V0.5 inact was given followed by a hyperpolarizing 2 ms pulse to −120 mV and a 20 ms test pulse to −20 mV. Protocol was applied to cells in the absence, presence of compound and after washout. The temperature of PatchXpress instruments was maintained at 22° C. The following recording solutions were used. Internal solution (mM): 30 CsCl, 5 HEPES, 10 EGTA, 120 CsF, 5 NaF, 2 MgCl2. External solution (mM): 120 NMDG, 40 NaCl, 1 KCl, 0.5 MgCl2, 5 HEPES, 2.7 CaCl2.

[4] = target: T4, human Nav1.7 channels stably expressed in HEK 293 cells; assay: as above; settings: PatchXpress technique; read-out: Nav 1.7 potency
Method: as §2, §5, §6

| Structure (SMILES) | IC50 (Nav 1.7) | IC50 [2] | IC50 [4] | Activity: Ratio 1.5:1.7 (Nav 1.5) | Ratio 1.5:1.7 = Nav 1.5 potency (nM)/Nav1.7 potency (nM) [1] | Ratio 1.5:1.7 = Nav 1.5 potency (nM)/Nav1.7 potency (nM) [3] |
| --- | --- | --- | --- | --- | --- | --- |
| NC/C=C/c1cc(Cl)ccc1Cn1ncc2cc(S(=O)(=O)Nc3ncns3)ccc21 [Ex-16, 1-{2-[(1E)-3-aminoprop-1-en-1-yl]-4-chlorobenzyl}-N-1,2,4-thiadiazol-5-yl-1H-indazole-5-sulfonamide] |  | 413 nM | 939 nM |  | 81 | 32 |
| O=S(=O)(Nc1ncns1)c1ccc2c(cnn2Cc2ccc(Cl)cc2C2=CCNCCC2)c1 [Ex-17, 1-[4-chloro-2-(2,5,6,7-tetrahydro-1H-azepin-4-yl)benzyl]-N-1,2,4-thiadiazol-5-yl-1H-indazole-5-sulfonamide] |  | 559 nM | 4470 nM |  | 59 | 7 |
| O=S(=O)(Nc1ncns1)c1ccc2c(cnn2Cc2ccc(Cl)cc2C2=CCNCC2)c1 [Ex-18, 1-[4-chloro-2-(1,2,3,6-tetrahydropyridin-4-yl)benzyl]-N-1,2,4-thiadiazol-5-yl-1H-indazole-5-sulfonamide] |  | 781 nM | 5210 nM |  | 42 | 6 |
| O=S(=O)(Nc1ncns1)c1ccc2c(cnn2Cc2ccccc2)c1 [Ex-19, 1-benzyl-N-1,2,4-thiadiazol-5-yl-1H-indazole-5-sulfonamide] |  | 856 nM | 3030 nM |  | 39 | 6 |
| O=S(=O)(Nc1ncns1)c1ccc2c(cnn2Cc2ccccc2-c2cccc3c2CCNC3)c1 [Ex-22, 1-[2-(1,2,3,4-tetrahydroisoquinolin-5-yl)benzyl]-N-1,2,4-thiadiazol-5-yl-1H-indazole-5-sulfonamide] |  | 1460 nM | 2900 nM |  | 23 | > 10 |
| O=S(=O)(Nc1ncns1)c1ccc2c(cnn2Cc2ccccc2C2=CCNCCC2)c1 [Ex-23, 1-[2-(2,5,6,7-tetrahydro-1H-azepin-4-yl)benzyl]-N-1,2,4-thiadiazol-5-yl-1H-indazole-5-sulfonamide] |  | 1700 nM | 4470 nM |  | 19 | > 7 |
| O=S(=O)(Nc1ncns1)c1ccc2c(cnn2Cc2ccc(Cl)cc2-c2cccc3c2CCNC3)c1 [Ex-25, 1-[4-chloro-2-(1,2,3,4-tetrahydroisoquinolin-5-yl)benzyl]-N-1,2,4-thiadiazol-5-yl-1H-indazole-5-sulfonamide] |  | 1480 nM | 2900 nM |  | 23 | 10 |
| C[C@@H](c1cccc2c1CNCC2)n1ncc2cc(S(=O)(=O)Nc3ncns3)c(F)cc21 [Ex-64, (S)-6-fluoro-1-(1-(1,2,3,4-tetrahydroisoquinolin-8-yl)ethyl)-N-(1,2,4-thiadiazol-5-yl)-1H-indazole-5-sulfonamide] |  | 777 nM | 833 nM |  | 42 | 36 |

Continued, in another order:

| IC50 (Nav 1.7) | IC50 [2] | IC50 [4] | Structure (SMILES) | Activity: Ratio 1.5:1.7 (Nav 1.5) | Ratio 1.5:1.7 = Nav 1.5 potency (nM)/Nav1.7 potency (nM) [1] | Ratio 1.5:1.7 = Nav 1.5 potency (nM)/Nav1.7 potency (nM) [3] |
| --- | --- | --- | --- | --- | --- | --- |
| 27000 nM |  |  | Nc1cc(-c2cc(Cl)ccc2Cn2ncc3cc(S(=O)(=O)Nc4ncns4)ccc32)ccn1 [CE-01, 1-(2-(2-aminopyridin-4-yl)-4-chlorobenzyl)-N-(1,2,4-thiadiazol-5-yl)-1H-indazole-5-sulfonamide] | 1 |  |  |
| 33000 nM |  |  | O=S(=O)(Nc1nccs1)c1ccc2c(cnn2Cc2ccc(OC(C(F)(F)F)(C(F)(F)F)C(F)(F)F)cc2)c1 [CE-02, 1-(4-(1,1,1,3,3,3-hexafluoro-2-(trifluoro-methyl)propan-2-yloxy)benzyl)-N-(thiazol-2-yl)-1H-indazole-5-sulfonamide] | 1 |  |  |
| 33000 nM |  |  | O=S(=O)(Nc1nccs1)c1ccc2nn(Cc3ccc(OC(C(F)(F)F)(C(F)(F)F)C(F)(F)F)cc3)cc2c1 [CE-03, 2-(4-(1,1,1,3,3,3-hexafluoro-2-(trifluoro-methyl)propan-2-yloxy)benzyl)-N-(thiazol-2-yl)-2H-indazole-5-sulfonamide] | 1 |  |  |
